Consider 18 compounds from patent publication US10987359B2, “Oxadiazepinone derivatives and methods of treating hepatitis B infections” (priority 2016, dated 2021).

Where only a bound is given, the exact number is not on record here.

This experiment concerns HBV. The experiment is described as follows: HBV replication inhibition assay (BDNA assay) in HepG2.2.15 cells. Particulars: Hepatitis B virus, HepG2.2.15, HBV replication assay (BDNA assay), HepG2.2.15 cells; read-out: DNA EC50. The experiment is classed as cell-based. As for the experimental part: HBV replication inhibition by the disclosed compounds were determined in cells infected or transfected with HBV or cells with stably integrated HBV, such as HepG2.2.15 cells (Sells et al. 1987). In this example, HepG2.2.15 cells were maintained in cell culture medium containing 10% fetal bovine serum (FBS), Geneticin, L-glutamine, penicillin and streptomycin. HepG2.2.15 cells were seeded in 96-well plates at a density of 40,000 cells/well and were treated with serially diluted compounds at a final DMSO concentration of 0.5% either alone or in combination by adding drugs in a checker box format. Cells were incubated with compounds for three days, after which medium was removed and fresh medium containing compounds was added to cells and incubated for another three days. At day 6, supernatant was removed and treated with DNase at 37° C. for 60 minutes, followed by enzyme inactivation at 75° C. for 15 minutes. Encapsidated HBV DNA was released from the virions and covalently linked HBV polymerase by incubating in lysis buffer (Affymetrix QS0010) containing 2.5 μg proteinase K at 50° C. for 40 minutes. HBV DNA was denatured by addition of 0.2 M NaOH and detected using a branched DNA (BDNA) QuantiGene assay kit according to manufacturer recommendation (Affymetrix). HBV DNA levels were also quantified using qPCR, based on amplification of encapsidated HBV DNA extraction with QuickExtraction Solution (Epicentre Biotechnologies) and amplification of HBV DNA using HBV specific PCR probes that can hybridize to HBV DNA and a fluorescently labeled probe for quantitation. In addition, cell viability of HepG2.2.15 cells incubated with test compounds alone or in combination was determined by using CellTitre-Glo reagent according to the manufacturer protocol (Promega). The mean background signal from wells containing only culture medium was subtracted from all other samples, and percent inhibition at each compound concentration was calculated by normalizing to signals from HepG2.2.15 cells treated with 0.5% DMSO using equation E1. % inhibition=(DMSOave−Xi)/DMSOave×100% E1: […]
where DMSOave is the mean signal calculated from the wells that were treated with DMSO control (0% inhibition control) and Xi is the signal measured from the individual wells. EC50 values, effective concentrations that achieved 50% inhibitory effect, were determined by non-linear fitting using Graphpad Prism software (San Diego, Calif.) and equation E2: Y=Y min+(Y max−Y min)/(1+10(Log EC50−X)×HillSlope) E2: […]
where Y represents percent inhibition values and X represents the logarithm of compound concentrations.
Selected disclosed compounds were assayed in the HBV replication assay (BDNA assay), as described above, and a representative group of these active compounds is shown in Table 7. […] In Table 7, “A” represents 1<EC50≤100; “B” represents 100<EC50≤500; “C” represents 500<EC50≤1000; and “D” represents EC50>1000.
The term EC50 denotes the concentration giving half of the maximal effect. On to `CN1OC(CO)Cn2nc3c(c2C1=O)CN(C(=O)Nc1cc(Br)ccc1F)CC3` (single isomer, unassigned) [Compound 141_E1, (S*)—N-(5-bromo-2-fluorophenyl)-4-(hydroxymethyl)-2-methyl-1-oxo-1,4,5,8,9,11-hexahydropyrido[4′,3′:3,4]pyrazolo[5,1-d][1,2,5]oxadiazepine-10(2H)-carboxamide], for which the EC50 was 1 to 100 nM.
For `Cc1c(F)ccc(NC(=O)N2CCc3nn4c(c3C2)C(=O)N(C)OC(CO)C4)c1F` (single isomer, unassigned) [Compound 142_E1, (S*)—N-(2,4-difluoro-3-methylphenyl)-4-(hydroxymethyl)-2-methyl-1-oxo-1,4,5,8,9,11-hexahydropyrido[4′,3′:3,4]pyrazolo[5,1-d][1,2,5]oxadiazepine-10(2H)-carboxamide] the value was 1 to 100 nM.
With `Cc1cc(NC(=O)N2CCc3nn4c(c3C2)C(=O)N(C)OC(CO)C4)c(F)cc1F` (single isomer, unassigned) [Compound 143_E1, (S*)—N-(2,4-difluoro-5-methylphenyl)-4-(hydroxymethyl)-2-methyl-1-oxo-1,4,5,8,9,11-hexahydropyrido[4′,3′:3,4]pyrazolo[5,1-d][1,2,5]oxadiazepine-10(2H)-carboxamide], the EC50 is 1 to 100 nM.
Then `Cc1c(F)c(F)cc(NC(=O)N2CCc3nn4c(c3C2)C(=O)N(C)OC(CO)C4)c1F` (single isomer, unassigned) [Compound 144_E1, (S*)-4-(hydroxymethyl)-2-methyl-1-oxo-N-(2,4,5-trifluoro-3-methylphenyl)-1,4,5,8,9,11-hexahydropyrido[4′,3′:3,4]pyrazolo[5,1-d][1,2,5]oxadiazepine-10(2H)-carboxamide], with 1 to 100 nM; and `CN1OC(CO)Cn2nc3c(c2C1=O)CN(C(=O)Nc1cc(C#N)ccc1F)CC3` (single isomer, unassigned) [Compound 145_E1, (S*)—N-(5-cyano-2-fluorophenyl)-4-(hydroxymethyl)-2-methyl-1-oxo-1,4,5,8,9,11-hexahydropyrido[4′,3′:3,4]pyrazolo[5,1-d][1,2,5]oxadiazepine-10(2H)-carboxamide], with > 1000 nM; and `CN1OC(CO)Cn2nc3c(c2C1=O)CN(C(=O)Nc1cccc(C#N)c1F)CC3` (single isomer, unassigned) [Compound 146_E1, (S*)—N-(3-cyano-2-fluorophenyl)-4-(hydroxymethyl)-2-methyl-1-oxo-1,4,5,8,9,11-hexahydropyrido[4′,3′:3,4]pyrazolo[5,1-d][1,2,5]oxadiazepine-10(2H)-carboxamide], with 1 to 100 nM.
Then `CN1OC(CO)Cn2nc3c(c2C1=O)CN(C(=O)Nc1cc(C(F)(F)F)c(F)cc1F)CC3` (single isomer, unassigned) [Compound 147_E1, (S*)—N-(2,4-difluoro-5-(trifluoromethyl)phenyl)-4-(hydroxymethyl)-2-methyl-1-oxo-1,4,5,8,9,11-hexahydropyrido[4′,3′:3,4]pyrazolo[5,1-d][1,2,5]oxadiazepine-10(2H)-carboxamide], with 1 to 100 nM.
Regarding `CN1OC(CO)Cn2nc3c(c2C1=O)CN(C(=O)Nc1cc(C(F)(F)F)ccc1F)CC3` (single isomer, unassigned) [Compound 148_E1, (S*)—N-(2-fluoro-5-(trifluoromethyl)phenyl)-4-(hydroxymethyl)-2-methyl-1-oxo-1,4,5,8,9,11-hexahydropyrido[4′,3′:3,4]pyrazolo[5,1-d][1,2,5]oxadiazepine-10(2H)-carboxamide], the EC50 fell in the range of 100 to 500 nM.
As for `CN1OC(CO)Cn2nc3c(c2C1=O)CN(C(=O)Nc1ccc(F)c(C(F)(F)F)c1F)CC3` (single isomer, unassigned) [Compound 149_E1, (S*)—N-(2,4-difluoro-3-(trifluoromethyl)phenyl)-4-(hydroxymethyl)-2-methyl-1-oxo-1,4,5,8,9,11-hexahydropyrido[4′,3′:3,4]pyrazolo[5,1-d][1,2,5]oxadiazepine-10(2H)-carboxamide], the EC50 is 1 to 100 nM.
`CN1OC(CO)Cn2nc3c(c2C1=O)CN(C(=O)Nc1cc(Br)ncc1F)CC3` (single isomer, unassigned) [Compound 150_E1, (S*)—N-(2-bromo-5-fluoropyridin-4-yl)-4-(hydroxymethyl)-2-methyl-1-oxo-1,4,5,8,9,11-hexahydropyrido[4′,3′:3,4]pyrazolo[5,1-d][1,2,5]oxadiazepine-10(2H)-carboxamide]: the EC50 was 1 to 100 nM.
As to `CN1OC(CO)Cn2nc3c(c2C1=O)CN(C(=O)Nc1cc(F)c(F)c(F)c1F)CC3` (single isomer, unassigned) [Compound 151_E1, (S*)-4-(hydroxymethyl)-2-methyl-1-oxo-N-(2,3,4,5-tetrafluorophenyl)-1,4,5,8,9,11-hexahydropyrido[4′,3′:3,4]pyrazolo[5,1-d][1,2,5]oxadiazepine-10(2H)-carboxamide], the EC50 fell in the range of 1 to 100 nM.
Take `C[C@@H]1Cc2nn3c(c2CN1C(=O)Nc1ccc(F)c(Cl)c1F)C(=O)N(C)OC(C(=O)N(C)CC(F)F)C3` (single isomer, unassigned) [Compound 152_D1, (4S*,9R)—N10-(3-chloro-2,4-difluorophenyl)-N4-(2,2-difluoroethyl)-N4,2,9-trimethyl-1-oxo-1,4,5,8,9,11-hexahydropyrido[4′,3′:3,4]pyrazolo[5,1-d][1,2,5]oxadiazepine-4,10(2H)-dicarboxamide]: the EC50 is 1 to 100 nM.
On to `CNC(=O)C1Cn2nc3c(c2C(=O)N(C)O1)CN(C(=O)Nc1ccc(F)c(C#N)c1F)[C@H](C)C3` (single isomer, unassigned) [Compound 156_D1, (4S*,9R)—N10-(3-cyano-2,4-difluorophenyl)-N4,2,9-trimethyl-1-oxo-1,4,5,8,9,11-hexahydropyrido[4′,3′:3,4]pyrazolo[5,1-d][1,2,5]oxadiazepine-4,10(2H)-dicarboxamide], for which the EC50 was > 1000 nM.
Then `CC(=O)NCC1Cn2nc3c(c2C(=O)N(C)O1)CN(C(=O)Nc1ccc(F)c(C#N)c1F)CC3` (single isomer, unassigned) [Compound 167_E1, (S*)-4-(acetamidomethyl)-N-(3-cyano-2,4-difluorophenyl)-2-methyl-1-oxo-1,4,5,8,9,11-hexahydropyrido[4′,3′:3,4]pyrazolo[5,1-d][1,2,5]oxadiazepine-10(2H)-carboxamide], with 1 to 100 nM; and `CC(=O)NCC1Cn2nc3c(c2C(=O)N(C)O1)CN(C(=O)Nc1ccc(F)c(C#N)c1)CC3` (single isomer, unassigned) [Compound 168_E1, (S*)-4-(acetamidomethyl)-N-(3-cyano-4-fluorophenyl)-2-methyl-1-oxo-1,4,5,8,9,11-hexahydropyrido[4′,3′:3,4]pyrazolo[5,1-d][1,2,5]oxadiazepine-10(2H)-carboxamide], with 1 to 100 nM; and `CC(=O)NCC1Cn2nc3c(c2C(=O)N(C)O1)CN(C(=O)Nc1ccc(F)c(Cl)c1F)CC3` (single isomer, unassigned) [Compound 169_E1, (S*)-4-(acetamidomethyl)-N-(3-chloro-2,4-difluorophenyl)-2-methyl-1-oxo-1,4,5,8,9,11-hexahydropyrido[4′,3′:3,4]pyrazolo[5,1-d][1,2,5]oxadiazepine-10(2H)-carboxamide], with 1 to 100 nM.
With `CC(=O)NCC1Cn2nc3c(c2C(=O)N(C)O1)CN(C(=O)Nc1ccc(F)c(Br)c1F)CC3` (single isomer, unassigned) [Compound 170_E1, (S*)-4-(acetamidomethyl)-N-(3-bromo-2,4-difluorophenyl)-2-methyl-1-oxo-1,4,5,8,9,11-hexahydropyrido[4′,3′:3,4]pyrazolo[5,1-d][1,2,5]oxadiazepine-10(2H)-carboxamide], the half-maximal effective concentration (EC50) was 1 to 100 nM.
Turning to `CC(=O)NCC1Cn2nc3c(c2C(=O)N(C)O1)CN(C(=O)Nc1ccc(F)c(Br)c1)CC3` (single isomer, unassigned) [Compound 171_E1, (S*)-4-(acetamidomethyl)-N-(3-bromo-4-fluorophenyl)-2-methyl-1-oxo-1,4,5,8,9,11-hexahydropyrido[4′,3′:3,4]pyrazolo[5,1-d][1,2,5]oxadiazepine-10(2H)-carboxamide], the EC50 was in the range of 1 to 100 nM.
